Laboratory results taken from ChEMBL document CHEMBL1148029, “Synthesis and radiopharmacological characterization of 2beta-carbo-2'-[18F]fluoroethoxy-3beta-(4-bromo-phenyl)tropane ([18F]MCL-322) as a PET radiotracer for imaging the dopamine transporter (DAT)” (Bioorg Med Chem, 2007).

How the values were obtained:
Muscle tissue [1] = experiment: Biodistribution in Wistar rat muscle at 300 uCi, iv after 20 mins; type: ADME, organism-based; details: in vivo
Muscle tissue [2] = experiment: Biodistribution in Wistar rat muscle at 300 uCi, iv after 60 mins; type: ADME, organism-based; details: in vivo, 1 h
Muscle tissue [3] = experiment: Biodistribution in Wistar rat muscle at 300 uCi, iv after 120 mins; type: ADME, organism-based; details: in vivo, 2 h
Muscle tissue [4] = experiment: Biodistribution in Wistar rat muscle at 300 uCi, iv after 240 mins; type: ADME, organism-based; details: in vivo, 4 h
Heart = experiment: Biodistribution in Wistar rat heart at 300 uCi, iv after 5 mins; type: ADME, organism-based; details: in vivo
Cerebellum [5] = experiment: Biodistribution in Wistar rat cerebellum at 300 uCi, iv after 60 mins in presence of citalopram; type: ADME, organism-based; details: in vivo, 1 h
Liver = experiment: Biodistribution in Wistar rat liver at 300 uCi, iv after 5 mins; type: ADME, organism-based; details: in vivo
Blood [6] = experiment: Biodistribution in Wistar rat blood at 300 uCi, iv after 20 mins; type: ADME, organism-based; details: in vivo
Blood [7] = experiment: Biodistribution in Wistar rat blood at 300 uCi, iv after 60 mins; type: ADME, organism-based; details: in vivo, 1 h
Blood [8] = experiment: Biodistribution in Wistar rat blood at 300 uCi, iv after 120 mins; type: ADME, organism-based; details: in vivo, 2 h
[9] = Biodistribution in Wistar rat brown fat at 300 uCi, iv after 20 mins; type: ADME, organism-based, Brown adipose tissue; details: in vivo
[10] = Biodistribution in Wistar rat brown fat at 300 uCi, iv after 60 mins; type: ADME, organism-based, Brown adipose tissue; details: in vivo, 1 h
[11] = Biodistribution in Wistar rat hair and skin at 300 uCi, iv after 5 mins; type: ADME, organism-based; details: in vivo
[12] = Biodistribution in Wistar rat hair and skin at 300 uCi, iv after 20 mins; type: ADME, organism-based; details: in vivo
[13] = Biodistribution in Wistar rat hair and skin at 300 uCi, iv after 60 mins; type: ADME, organism-based; details: in vivo, 1 h
[14] = Biodistribution in Wistar rat hair and skin at 300 uCi, iv after 240 mins; type: ADME, organism-based; details: in vivo, 4 h
Pancreas [15] = experiment: Biodistribution in Wistar rat pancreas at 300 uCi, iv after 5 mins; type: ADME, organism-based; details: in vivo
Pancreas [16] = experiment: Biodistribution in Wistar rat pancreas at 300 uCi, iv after 20 mins; type: ADME, organism-based; details: in vivo
Pancreas [17] = experiment: Biodistribution in Wistar rat pancreas at 300 uCi, iv after 60 mins; type: ADME, organism-based; details: in vivo, 1 h
Spleen [18] = experiment: Biodistribution in Wistar rat spleen at 300 uCi, iv after 20 mins; type: ADME, organism-based; details: in vivo
Spleen [19] = experiment: Biodistribution in Wistar rat spleen at 300 uCi, iv after 240 mins; type: ADME, organism-based; details: in vivo, 4 h
Adrenal [20] = experiment: Biodistribution in Wistar rat adrenal gland at 300 uCi, iv after 20 mins; type: ADME, organism-based, Adrenal tissue; details: in vivo
Adrenal [21] = experiment: Biodistribution in Wistar rat adrenal gland at 300 uCi, iv after 60 mins; type: ADME, organism-based, Adrenal tissue; details: in vivo, 1 h
Adrenal [22] = experiment: Biodistribution in Wistar rat adrenal gland at 300 uCi, iv after 240 mins; type: ADME, organism-based, Adrenal tissue; details: in vivo, 4 h
Kidney [23] = experiment: Biodistribution in Wistar rat kidney at 300 uCi, iv after 20 mins; type: ADME, organism-based; details: in vivo
Kidney [24] = experiment: Biodistribution in Wistar rat kidney at 300 uCi, iv after 120 mins; type: ADME, organism-based; details: in vivo, 2 h
Kidney [25] = experiment: Biodistribution in Wistar rat kidney at 300 uCi, iv after 240 mins; type: ADME, organism-based; details: in vivo, 4 h
[26] = Biodistribution in Wistar rat fat at 300 uCi, iv after 60 mins; type: ADME, organism-based, Adipose tissue; details: in vivo, 1 h
[27] = Biodistribution in Wistar rat fat at 300 uCi, iv after 120 mins; type: ADME, organism-based, Adipose tissue; details: in vivo, 2 h
[28] = Biodistribution in Wistar rat fat at 300 uCi, iv after 240 mins; type: ADME, organism-based, Adipose tissue; details: in vivo, 4 h
Lung [29] = experiment: Biodistribution in Wistar rat lung at 300 uCi, iv after 60 mins; type: ADME, organism-based; details: in vivo, 1 h
Lung [30] = experiment: Biodistribution in Wistar rat lung at 300 uCi, iv after 120 mins; type: ADME, organism-based; details: in vivo, 2 h
Lung [31] = experiment: Biodistribution in Wistar rat lung at 300 uCi, iv after 240 mins; type: ADME, organism-based; details: in vivo, 4 h
Thymus [32] = experiment: Biodistribution in Wistar rat thymus at 300 uCi, iv after 20 mins; type: ADME, organism-based; details: in vivo
Thymus [33] = experiment: Biodistribution in Wistar rat thymus at 300 uCi, iv after 240 mins; type: ADME, organism-based; details: in vivo, 4 h
Harderian gland [34] = experiment: Biodistribution in Wistar rat harderian glands at 300 uCi, iv after 20 mins; type: ADME, organism-based; details: in vivo
Harderian gland [35] = experiment: Biodistribution in Wistar rat harderian glands at 300 uCi, iv after 240 mins; type: ADME, organism-based; details: in vivo, 4 h
Femur = experiment: Biodistribution in Wistar rat femur at 300 uCi, iv after 60 mins; type: ADME, organism-based; details: in vivo, 1 h
Striatum [36] = experiment: Biodistribution in Wistar rat striatum at 300 uCi, iv after 120 mins; type: ADME, organism-based; details: in vivo, 2 h
Striatum [37] = experiment: Biodistribution in Wistar rat striatum at 300 uCi, iv after 240 mins; type: ADME, organism-based; details: in vivo, 4 h
Cerebellum [38] = experiment: Biodistribution in Wistar rat cerebellum at 300 uCi, iv after 5 mins; type: ADME, organism-based; details: in vivo
Cerebellum [39] = experiment: Biodistribution in Wistar rat cerebellum at 300 uCi, iv after 60 mins; type: ADME, organism-based; details: in vivo, 1 h
Cerebellum [40] = experiment: Biodistribution in Wistar rat cerebellum at 300 uCi, iv after 120 mins; type: ADME, organism-based; details: in vivo, 2 h
Cerebellum [41] = experiment: Biodistribution in Wistar rat cerebellum at 300 uCi, iv after 240 mins; type: ADME, organism-based; details: in vivo, 4 h
Hippocampus = experiment: Biodistribution in Wistar rat hippocampus at 300 uCi, iv after 60 mins; type: ADME, organism-based; details: in vivo, 1 h
[42] = Biodistribution in Wistar rat rest of brain at 300 uCi, iv after 20 mins; type: ADME, organism-based; details: in vivo
Cortex [43] = experiment: Biodistribution in Wistar rat cortex at 300 uCi, iv after 5 mins; type: ADME, organism-based; details: in vivo
Striatum [44] = experiment: Biodistribution in Wistar rat striatum at 300 uCi, iv after 60 mins in presence of GBR-12909; type: ADME, organism-based; details: in vivo, 1 h
Striatum [45] = experiment: Biodistribution in Wistar rat striatum at 300 uCi, iv after 60 mins in presence of citalopram; type: ADME, organism-based; details: in vivo, 1 h
Cortex [46] = experiment: Biodistribution in Wistar rat cortex at 300 uCi, iv after 60 mins in presence of GBR-12909; type: ADME, organism-based; details: in vivo, 1 h
Cortex [47] = experiment: Biodistribution in Wistar rat cortex at 300 uCi, iv after 60 mins in presence of citalopram; type: ADME, organism-based; details: in vivo, 1 h
Brain = experiment: Biodistribution in Wistar rat rest of brain at 300 uCi, iv after 60 mins in presence of citalopram; type: ADME, organism-based; details: in vivo, 1 h
Cortex [48] = experiment: Biodistribution in Wistar rat cortex at 300 uCi, iv after 20 mins; type: ADME, organism-based; details: in vivo
Cortex [49] = experiment: Biodistribution in Wistar rat cortex at 300 uCi, iv after 60 mins; type: ADME, organism-based; details: in vivo, 1 h
Testes [50] = experiment: Biodistribution in Wistar rat testes at 300 uCi, iv after 120 mins; type: ADME, organism-based, Testis; details: in vivo, 2 h
Testes [51] = experiment: Biodistribution in Wistar rat testes at 300 uCi, iv after 240 mins; type: ADME, organism-based, Testis; details: in vivo, 4 h
Plasma [52] = experiment: Metabolic stability in Wistar rat plasma assessed as polar metabolite level at 1 mCi, iv after 5 mins; type: ADME, organism-based; details: in vivo
Plasma [53] = experiment: Metabolic stability in Wistar rat plasma assessed as polar metabolite level at 1 mCi, iv after 10 mins; type: ADME, organism-based; details: in vivo
Plasma [54] = experiment: Metabolic stability in Wistar rat plasma assessed as polar metabolite level at 1 mCi, iv after 30 mins; type: ADME, organism-based; details: in vivo, 0.5 h
Plasma [55] = experiment: Metabolic stability in Wistar rat plasma assessed as polar metabolite level at 1 mCi, iv after 60 mins; type: ADME, organism-based; details: in vivo, 1 h
[56] = Metabolic stability in Wistar rat striatum at 1 mCi, iv after 60 mins; type: ADME, organism-based; details: read-out: Stability

With CN1C2CCC1C(C(=O)OCC[18F])C(c1ccc(Br)cc1)C2 (stereo unspecified) the Drug uptake (Muscle tissue [1]) was 0.33 % ID/g, the Drug uptake (Muscle tissue [2]) was 0.16 % ID/g and the Drug uptake (Muscle tissue [3]) was 0.09 % ID/g. It also gave a Drug uptake (Muscle tissue [4]) of 0.04 % ID/g, a Drug uptake (Heart) of 1.09 % ID/g and a Drug uptake (Cerebellum [5]) of 0.71 % ID/g. For the same compound, the Drug uptake (Liver) was 3.2 % ID/g, the Drug uptake (Blood [6]) was 0.07 % ID/g and the Drug uptake (Blood [7]) was 0.025 % ID/g. For the same compound, the Drug uptake (Blood [8]) was 0.03 % ID/g, the Drug uptake [9] was 0.78 % ID/g and the Drug uptake [10] was 0.39 % ID/g. The Drug uptake [11] was 0.47 % ID/g, the Drug uptake [12] was 0.47 % ID/g and the Drug uptake [13] was 0.29 % ID/g. For the same compound, the Drug uptake [14] was 0.08 % ID/g, the Drug uptake (Pancreas [15]) was 2.09 % ID/g and the Drug uptake (Pancreas [16]) was 1.23 % ID/g. The Drug uptake (Pancreas [17]) was 0.54 % ID/g, the Drug uptake (Spleen [18]) was 1.41 % ID/g and the Drug uptake (Spleen [19]) was 0.12 % ID/g. For the same compound, the Drug uptake (Adrenal [20]) was 1.21 % ID/g, the Drug uptake (Adrenal [21]) was 0.58 % ID/g and the Drug uptake (Adrenal [22]) was 0.17 % ID/g. For the same compound, the Drug uptake (Kidney [23]) was 3.51 % ID/g, the Drug uptake (Kidney [24]) was 1.84 % ID/g and the Drug uptake (Kidney [25]) was 0.83 % ID/g. The Drug uptake [26] was 0.27 % ID/g, the Drug uptake [27] was 0.16 % ID/g and the Drug uptake [28] was 0.06 % ID/g. For the same compound, the Drug uptake (Lung [29]) was 1.14 % ID/g, the Drug uptake (Lung [30]) was 0.54 % ID/g and the Drug uptake (Lung [31]) was 0.27 % ID/g. For the same compound, the Drug uptake (Thymus [32]) was 0.82 % ID/g, the Drug uptake (Thymus [33]) was 0.08 % ID/g and the Drug uptake (Harderian gland [34]) was 2.04 % ID/g. For the same compound, the Drug uptake (Harderian gland [35]) was 0.93 % ID/g, the Drug uptake (Femur) was 0.17 % ID/g and the Drug uptake (Striatum [36]) was 0.39 % ID/g. For the same compound, the Drug uptake (Striatum [37]) was 2.45 % ID/g, the Drug uptake (Cerebellum [38]) was 1.77 % ID/g and the Drug uptake (Cerebellum [39]) was 0.56 % ID/g. For the same compound, the Drug uptake (Cerebellum [40]) was 0.24 % ID/g, the Drug uptake (Cerebellum [41]) was 0.09 % ID/g and the Drug uptake (Hippocampus) was 1.12 % ID/g. It also gave a Drug uptake [42] of 2.06 % ID/g, a Drug uptake (Cortex [43]) of 3.19 % ID/g and a Drug uptake (Striatum [44]) of 1.51 % ID/g. The Drug uptake (Striatum [45]) was 6.43 % ID/g, the Drug uptake (Cortex [46]) was 0.94 % ID/g and the Drug uptake (Cortex [47]) was 0.97 % ID/g. For the same compound, the Drug uptake (Brain) was 1.56 % ID/g, the Drug uptake (Cortex [48]) was 2.29 % ID/g and the Drug uptake (Cortex [49]) was 1 % ID/g. For the same compound, the Drug uptake (Testes [50]) was 0.39 % ID/g, the Drug uptake (Testes [51]) was 0.17 % ID/g and the Stability (Plasma [52]) was 42%. For the same compound, the Stability (Plasma [53]) was 61%, the Stability (Plasma [54]) was 76% and the Stability (Plasma [55]) was 85%. For the same compound, the remaining at 1 h [56] was over 90%.
